From patent US20210311061A1, “USE OF TROP-2 AS PREDICTIVE MARKER OF RESPONSE TO ANTI-TUMOR THERAPY BASED ON INHIBITORS OF CD9, AKT AND MOLECULES OF THE TETRASPANIN SIGNALLING NETWORK” (ONCOXX BIOTECH S.R.L., priority 2012, published 2021) come the findings set out here.

Where only a bound is given, the exact number is not on record here.

Data set [1] relates to Colo205 colon cancer cells. Description: Xenografts in athymic nude mice, Colo205. Particulars: 0.35 mg/mouse intraperitoneally every day, in vivo growth curves. The protocol: (§1) MTE 4-14 immortalized cell line transfected with Trop-2 (Alberti, Nutini et al. 1994), or Colo205 colon cancer cells, endogenously expressing Trop-2, were injected subcutaneously (4×10^6 cells/injection) into nude mice groups (8 weeks females, CD1-Foxn1 nu/nu mice (Charles River Laboratories, Calco, Lecco, Italy). MTE 4-14 cells transfected with Trop-2 were co-injected with Matrigel 1:3 vol/vol (growth factor reduced matrix, BD Biosciences, Franklin Lakes, N.J. USA). A stock solution of MK-2206 in DMSO was diluted at the time of use in apyrogenic saline solution, to a final concentration of 0.7 mg/ml, and the drug was administered intraperitoneally at a dose of 0.35 mg/mouse every day, starting from the time in which the tumors became palpable. Control group mice were treated with the vehicle alone. Mice were visually inspected every 5-7 days and the major and minor diameters of the experimental tumors were measured. The tumor volume was calculated using the formula for the volume of ellipsoid (Dxd2/2). MTE 4-14 cells transfected with the empty vector were not tumorigenic in this model. […]

In data set [2] the test system is MTE 4-14 cells transfected with Trop-2. Description: Xenografts in athymic nude mice, MTE 4-14 transfected with Trop-2. The note with it: MTE 4-14/Trop-2; 0.35 mg/mouse intraperitoneally every day; in vivo growth curves. The protocol:
as §1

For data set [3] the test system is unchanged. Description: In vitro cell-growth assay, MTE 4-14 cells transfected with Trop-2. The class given is cell-based, murine. The note with it: siRNA transfection, growth curves, FIG. 7d. On the procedure:
(§2) MTE 4-14 cells transfected with the empty vector or with Trop-2 were seeded at 1.5-3×10^3 cells/well in 96-well plates (five replica wells per data point). Cell numbers were quantified by the MTT colorimetric assay (Roche Molecular Biochemicals, Mannheim, Germany) or by staining with crystal violet. Cell numbers were normalised against a reference standard curve of serially diluted cell samples.
(§3) Cells were treated with 50-100-200-400 nM A6730_SIGMA (Sigma Technical Company, St Louis, Mo. 63178-9916) or with 400 nM MK-2206 (Selleck Chemicals, Houston, Tex.) to inhibit Akt. Stock solutions were prepared in DMSO and diluited in ethanol or water, with the final concentration of DMSO and ethanol never exceeding 0.1% and 1% respectively. Control cells received vehicle alone. A second treatment was performed 24 hours after seeding.
(§4) The corresponding constructs were transiently transfected into MTE 4-14 cells, and their effect on cell proliferation was evaluated. The levels of transcripts after silencing were quantified by real-time RT-PCR. siRNAs directed against irrelevant targets were used as negative controls, chosen after thorough verification of the absence of spurious effects on cell growth. […]

The test system of data set [4] is MTE 4-14 cells transfected with the empty vector. Description: In vitro cell-growth assay, MTE 4-14 cells transfected with the empty vector. The class given is cell-based, murine. The note with it: siRNA transfection, growth curves, FIG. 7d. On the procedure:
as §2, §3, §4

For data set [5], the system named is Akt. Description: Western blot of Akt phosphorylation in MTE 4-14 transfectants with or without PMA. The class given is cell-based, murine. The protocol:
Western blotting was performed as previously described (El Sewedy, Fornaro et al. 1998). In brief, cell lysates were analyzed by electrophoresis on denaturing polyacrylamide gel (SDS-PAGE) and transfered onto nitrocellulose filters. Filters were incubated with the relevant primary antibodies (Abcam, Cambridge, UK; Santa Cruz) in TBS with 5% non-fat dried milk. Hybridized filters were washed in TBS, 0.1% Tween-20. […] Signal intensity was quantified with NIH-image 1.62, using as reference a Kodak gray-scale standards power curve (www.kodak.com).
Background: A western blot detects proteins with antibodies after separation by electrophoresis.

The test system of data set [6] is Trop-2. Description: Precipitation of cholesterol from BRIJ lysate, precipitation of Trop-2. The note with it: MTE4-14 cells transfected with Trop-2; Western blot, FIG. 3f. The protocol: Cells were also harvested by scraping and lysed in buffer with 1% BRIJ. The supernatant was mixed with either 1/10 (vol/vol) methanol (control) or 1/10 (vol/vol) 10% digitonin in methanol, and incubated on ice for 10 min. Cell membranes were recovered by centrifugation at 12,000 g for 15 min. The pellet was washed in cold acetone, resuspended in Laemmli buffer and analysed by Western blotting.

The test system of data set [7] is Trop-2. Description: Depletion of cholesterol from cell membranes, release of Trop-2. The class given is cell-based. The note with it: MTE4-14 cells transfected with Trop-2; 10 mM, 37° C., 45 min; Western blot, FIG. 3f. On the procedure: To deplete cell membranes of cholesterol, intact cells were washed three times in PBS to remove serum and incubated in DMEM with 10 mM methyl-β-cyclodextrin at 37° C. for 45 min. Control cells were processed in parallel in the absence of methyl-β-cyclodextrin. Samples were centrifuged at 2000 g to remove cells and cell debris. Proteins in the supernatant were precipitated in trichloroacetic acid and analysed by Western blotting.

Data set [8] addresses T1, Trop-2 (human, wild-type) (human, UniProt P09758 27-323).
T1 construct: whole, on cells; Full-length protein expressed in cells (MTE 4-14 transfectants, MCF7); also called T2
T1 sequence (looked up): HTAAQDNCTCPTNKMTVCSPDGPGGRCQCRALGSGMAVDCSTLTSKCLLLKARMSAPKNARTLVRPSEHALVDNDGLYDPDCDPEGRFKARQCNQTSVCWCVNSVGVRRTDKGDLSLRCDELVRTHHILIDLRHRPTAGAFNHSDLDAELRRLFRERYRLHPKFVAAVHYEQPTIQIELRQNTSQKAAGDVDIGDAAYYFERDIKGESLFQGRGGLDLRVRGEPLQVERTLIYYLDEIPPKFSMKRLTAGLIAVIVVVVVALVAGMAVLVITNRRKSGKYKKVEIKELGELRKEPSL
Description: confocal microscopy of intact cells, co-capping and cell footprints, MTE 4-14 cells transfected with Trop-2. From the text: FIG. 3. Interaction of Trop-2 and PKCα with tetraspanin molecules and CD9. (a-d) Confocal microscopy analysis of intact cell membranes (a), membrane areas showing co-capping (b), footprints of cell membranes (c, d) of MTE 4-14 cells transfected with Trop-2 (a-c, d top) or with the empty vector (d bottom) stained simultaneously with anti-Trop-2 and anti-CD9 (member of tetraspanin webs) or anti-caveolin (negative control) (a-c) or anti-CD9 and anti PKCα (d) conjugated with fluorescent molecules. Areas of colocalization are indicated by arrowheads. (e) Co-immunoprecipitation (IP) of Trop-2, PKCα, CD9 and tetraspanins. Immunoprecipitation was performed using primary antibodies against murine CD9, CD81 and CD151 (MTE 4-14cells) or human CD9, CD82 and CD151 (MCF7 cells); the presence of Trop-2 and PKCα in immunoprecipites was detected by Western blot. IP with anti-Trop-2: positive control. (f) Trop-2/cholesterol association. Release of Trop-2 in the culture medium after treatment with methyl-β-cyclodextrin (MβCD) (left). Precipitation of Trop-2 with digitonin from BRIJ lysate (right). The treatments were performed on MTE4-14 cells transfected with Trop-2, and the presence of Trop-2 in the soluble and insoluble fractions was assessed by Western blot.

For the molecule `NC1(c2ccc(-c3nc4ccn5c(=O)[nH]nc5c4cc3-c3ccccc3)cc2)CCC1` [MK-2206], the “Difference between control and treated tumors, P (two-way ANOVA)” value in data set [1] and in data set [2] was under 0.0001 in each case. For the molecule “anti-CD9 siRNA: anti-CD9 siRNA with target sense sequence 5′ GGTAGCAAGT GCATCAAAT 3′, expressed as hairpin RNA from pSUPER vector (sense GGTAGCAAGTGCATCAAAT; antisense ATTTGATGCACTTGCTACC; listed as Mus musculus)”, the “proliferation of MTE 4-14 cells expressing Trop-2” value in data set [3] was “striking reduction”. Also, the “proliferation of Trop-2-negative cells” value in data set [4] is reported as “essentially no impact”. As to `CCCCCCCCCCCCCC(=O)O[C@@H]1[C@@H](C)[C@@]2(O)[C@@H](C=C(CO)C[C@]3(O)C(=O)C(C)=C[C@@H]23)[C@@H]2C(C)(C)[C@]12OC(C)=O` [PMA], in data set [5] (MTE 4-14 cells transfected with Trop-2, FIG. 6b), the Akt-S473 phosphorylation result was “reduction, further increased by PMA”. For the same molecule, the Akt-T308 phosphorylation levels entry in data set [5] (MTE 4-14 transfectants, FIG. 6b) is “no effect”.

For `C[C@@H]1CC[C@@]2(OC1)O[C@H]1[C@@H](O)[C@H]3[C@@H]4CC[C@H]5C[C@@H](O[C@@H]6O[C@H](CO)[C@H](O[C@@H]7O[C@H](CO)[C@@H](O)[C@H](O[C@@H]8OC[C@@H](O)[C@H](O)[C@H]8O)[C@H]7O[C@@H]7O[C@H](CO)[C@H](O)[C@H](O[C@@H]8O[C@H](CO)[C@@H](O)[C@H](O)[C@H]8O)[C@H]7O)[C@H](O)[C@H]6O)[C@H](O)C[C@]5(C)[C@H]4CC[C@]3(C)[C@H]1[C@@H]2C` [digitonin], the “precipitation of Trop-2 from lysates of cell membranes in BRIJ” value in data set [6] was “precipitation of Trop-2”. As for methyl-β-cyclodextrin, the “release of Trop-2 in the culture medium” value in data set [7] is “induce the release of Trop-2 in the culture medium”.

B1: caveolin (other, murine, UniProt P49817 2-178, looked up)
chain: SGGKYVDSEGHLYTVPIREQGNIYKPNNKAMADEVTEKQVYDAHTKEIDLVNRDPKHLNDDVVKIDFEDVIAEPEGTHSFDGIWKASFTTFTVTKYWFYRLLSTIFGIPMALIWGIYFAILSFLHIWAVVPCIKSFLIEIQCISRVYSIYVHTFCDPLFEAIGKIFSNIRISTQKEI
notes: Lipid-raft marker used as negative control in the confocal, co-capping and footprint analyses; also called caveolin-1
B1: the binding result in data set [8] is on record as “no binding”.
